Drawing on patent US20240261319A1, “ANTI-FUNGAL COMPOSITION DERIVED FROM HESPERALOE” (Kimberly-Clark Worldwide, Inc., priority 2021, published 2024), this text covers MIC for 1 compound.

Each structure is given as a SMILES string. Values after ≈ are worked out from the molar mass of the structure shown.

The assay relates to Candida albicans. The assay is described as follows: Minimum inhibitory concentration (MIC) testing, two-fold broth dilution in YPD, OD620. The settings on record: C. albicans (ATCC) in YPD broth, two-fold dilutions starting at 200, 30° C., 18-24 hours. It counts as cell-based. Here is the method: Candida albicans, was purchased from ATCC. Thirty-five samples derived from KC Hesperaloe funifera, crude extracts and selected fractions (Table 1) were screened for the inhibition of growth of candida.
Minimum inhibitory concentration (MIC) testing was performed. Two-fold dilutions of sample prepared in C. albicans growth medium (Yeast Peptone Dextrose, YPD) broth, starting at 200 µg/mL. Then inoculum added and incubated at 30° C. for 18-24 hours, and OD620 was determined. T-test was used to determine statistically significant decreases in growth ([…]). Controls included Ketoconazole (50 µg/mL, Keto50), Neg (media with DMSO only, no inoculum), Pos (media with DMSO and inoculum), and YPD (broth only). In wells with decreased growth, wells were mixed by pipetting, and […] samples were plated on YPD agar to determine whether viable C. albicans were present, as an estimation of minimum fungicidal concentration (MFC).
Background: In broth dilution the organism is exposed to a series of concentrations in liquid medium.

One may read the MIC as the lowest concentration that inhibits growth of the organism. Lower therefore signals inhibition by little substance. Regarding `CC(=O)N1CCN(c2ccc(OCC3COC(Cn4ccnc4)(c4ccc(Cl)cc4Cl)O3)cc2)CC1` (stereo not shown) [Ketoconazole], the MIC was 25 mg/mL (≈ 47 mM).
